Reference: patent US20260224555A1, “NEW PHENYLQUINOLONE COMPOUND HAVING ANTIBACTERIAL AND ANTI-CANCER FUNCTIONS AND PREPARATION THEREOF” (AlphaMol Science Ltd (Shanghai), priority 2022, published 2026)
Where two headings read alike, the source gives them in different places.

Test system: methicillin-resistant Staphylococcus aureus
Type: in vivo, Kunming mice
Details: for reduction of necrosis area compared with the control group: 4 consecutive days, MRSA skin infection in mice
Experimental: Kunming mice (20±2 g) were anesthetized with chloral hydrate and shaved, and then 50 μL of 4×10^7 CFU/mL of methicillin-resistant Staphylococcus aureus was subcutaneously injected. One day later, 100 μL of 0.02, 2 and 200 mg/kg of Example 34 were subcutaneously injected respectively, and 100 μL of normal saline was injected for the control group. The drug was administered for consecutive 4 days, and mice were euthanized on the 5th day, and the area of abscess was measured.

## O=C(O)c1cn(C2CC2)c2cc(-c3ccc(S(=O)(=O)NCCCCCCO)cc3)c(F)cc2c1=O [Example 29, 1-cyclopropyl-6-fluoro-7-(4-(N-(6-hydroxyhexyl)sulfamoyl)phenyl)-4-oxo-1,4-dihydroquinolin-3-carboxylic acid]
0.02 mg/kg subcutaneous
  reduction of necrosis area compared with the control group: 78.09%
2 mg/kg subcutaneous
  reduction of necrosis area compared with the control group: 81.21%
(corresponding to 0.02 mg/kg, 200 mg/kg)
  antibacterial effect in skin infection model: good antibacterial effect
mouse, in vivo, sc, 200 mg/kg
  observation at the subcutaneous administration site: certain bleeding symptom in body surface appeared at the subcutaneous administration site
